Source: US8912179B2, “Heterocyclyl compounds as histamine H3 receptor ligands” (Suven Life Sciences Limited, priority 2010, dated 2014)
Structures can show the parent of a compound that is named as a salt. Each block holds one compound with its values, some of them ahead of it.

Assays:
[1] = Rodent pharmacokinetic study; assay type: in vivo, Male Wistar rats; settings: whole blood, Wistar male rat; for AUC(0-t) / Cmax / Tmax / half-life: water, blood; for bioavailability: per oral 3 mg/kg vs intravenous 1 mg/kg
Procedure: Male Wistar rats (230-280 grams) obtained from NIN (National Institute of Nutrition, Hyderabad, India) were used as an experimental animal. Three animals were housed in each cage. Animals were kept fasted over night and maintained on a 12 hours light/dark cycle. Three rats were dosed New chemical entity (NCE) orally (3 or 10 mg/kg) and intravenously (1 or 5 mg/kg) on day 0 and day 2.
At each time point blood was collected by jugular vein. Blood was stored at 2-8° C. until analysis. The concentrations of the NCE compound in blood were determined using LC-MS/MS method. Schedule time points: Pre dose 0.08, 0.25, 0.5, 1, 2, 4, 6, 8 and 24 hours after dosing (n=3). The NCE compounds were quantified in blood by partially validated LC-MS/MS method using acetonitrile precipitation technique. NCE compounds were quantified in the calibration range of 1-2000 ng/mL in blood. Study samples were analyzed using calibration samples in the batch and quality control samples spread across the batch.
Pharmacokinetic parameters were calculated by non-compartmental model using software WinNonlin version 5.0.1.

[2] = tested on: rats; assay: Morris water maze, reversal of scopolamine induced amnesia; assay type: in vivo, rat; settings: p.o., dose giving reversal
Procedure: The cognition-enhancing properties of compounds of this invention were estimated by using this model.
The water maze apparatus consisted of a circular pool (1.8 m diameter, 0.6 m high) constructed in black Perspex (TSE systems, Germany) filled with water (24±2° C.) and positioned underneath a wide-angled video camera to track animal. The 10 cm^2 perspex platform, lying 1 cm below the water surface, was placed in the centre of one of the four imaginary quadrants, which remained constant for all rats. The black Perspex used in the construction of the maze and platform offered no intramaze cues to guide escape behavior. By contrast, the training room offered several strong extramaze visual cues to aid the formation of the spatial map necessary for escape learning. An automated tracking system, [Videomot 2 (5.51), TSE systems, Germany] was employed. This program analyzes video images acquired via a digital camera and an image acquisition boards that determined path length, swim speed and the number of entries and duration of swim time spent in each quadrant of the water maze.

[3] = tested on: Male Wister rats; assay: Object recognition task model; assay type: in vivo, rat; settings: for Exploration time mean ± S.E.M, Familiar object / Exploration time mean ± S.E.M, Novel object: choice trial T2, 24 hours after T1
Procedure: The cognition enhancing properties of compounds of this invention were estimated by using this model.
Male Wister rats (230-280 grams) obtained from N. I. N. (National Institute of Nutrition, Hyderabad, India) was used as experimental animals. Four animals were housed in each cage. Animals were kept on 20% food deprivation before one day and given water ad libitum throughout the experiment and maintained on a 12 hours light/dark cycle. Also the rats were habituated to individual arenas for 1 hour in the absence of any objects.
One group of 12 rats received vehicle (1 mL/Kg) orally and another set of animals received compound of the formula (I) either orally or i.p., before one hour of the familiar (T1) and choice trial (T2).
The experiment was carried out in a 50×50×50 cm open field made up of acrylic. In the familiarization phase, (T1), the rats were placed individually in the open field for 3 minutes, in which two identical objects (plastic bottles, 12.5 cm height×5.5 cm diameter) covered in yellow masking tape alone (a1 and a2) were positioned in two adjacent corners, 10 cms from the walls. After 24 hours of the (T1) trial for long-term memory test, the same rats were placed in the same arena as they were placed in T1 trial. Choice phase (T2) rats were allowed to explore the open field for 3 minutes in presence of one familiar object (a3) and one novel object (b) (Amber color glass bottle, 12 cm high and 5 cm in diameter). Familiar objects presented similar textures, colors and sizes. During the T1 and T2 trial, explorations of each object (defined as sniffing, licking, chewing or having moving vibrissae whilst directing the nose towards the object at a distance of less than 1 cm) were recorded separately by stopwatch. Sitting on an object was not regarded as exploratory activity, however, it was rarely observed. • T1 is the total time spent exploring the familiar objects (a1+a2). • T2 is the total time spent exploring the familiar object and novel object (a3+b).
The object recognition test was performed as described by Ennaceur, A., Delacour, J., 1988, A new one-trial test for neurobiological studies of memory in rats—Behavioural data, Behav. Brain Res., 31, 47-59.

[4] = Rodent brain penetration study; assay type: in vivo, Male Wister rats; settings: brain / whole blood; Wistar male rat; one value per compound, table lists intravenous 1 mg/kg and per oral 3 mg/kg, water; read-out: Brain Penetration Ratio (Cb/Cp)
Procedure: Male Wister rats (230-280 grams) obtained from NIN (National Institute of Nutrition, Hyderabad, India) was used as experimental animals. Three animals were housed in each cage. Animals were given water and food ad libitum throughout the experiment, and maintained on a 12 hours light/dark cycle.
New chemical entity (NCE) was dissolved in suitable vehicle and administered orally (3 or 10 mg/kg). Around Tmax (i.e, 0.5 hour, 1.0 hour and 2.0 hours) animals were sacrificed. Blood and brain tissue were collected and brain was homogenized to yield 20% w/v. Blood was stored at 2-8° C. and brain homogenate was frozen at −20° C. until analysis. The concentrations of NCE in blood and brain were quantified using LC-MS/MS method.
The NCE was quantified in blood and brain homogenate by partially validated LC-MS/MS method using acetonitrile precipitation technique. NCE compounds were quantified in the calibration range of 1-500 ng/mL in blood and brain homogenate. Study samples were analyzed using calibration samples in the batch and quality control samples spread across the batch. Extents of brain-blood ratio were calculated (Cb/Cp).

[5] = molecular target: Histamine H3 receptor (UniProt Q9Y5N1); assay: Binding assay for human or rat histamine H3 receptor ([3H] R-α-methylhistamine); settings: [3H] R-α-methylhistamine 3.0 nM; rat brain frontal cortex or recombinant human receptor in CHO cells (not specified which)
Procedure: Compounds can be evaluated according to the following procedures.
• Receptor source: Rat brain frontal cortex or recombinant human cDNA expressed in CHO cells • Radioligand: [^3H] R-α-methylhistamine • Final ligand concentration—[3.0 nM] • Non-specific determinant: R-α-methylhistamine (100 uM) • Reference compound: R-α-methylhistamine • Positive control: R-α-methylhistamine Incubation Conditions:
Increasing concentrations of test compounds or standard were incubated with membrane receptors and radioligand in 5 mM MgCl2 and 50 mM TRIS-HCl (pH 7.4) for 60 minutes at room temperature. The reaction was terminated by rapid vacuum filtration onto the glass fiber filters. Radioactivity trapped onto the filters was determined and compared to the control values in order to ascertain any interactions of the test compound(s) with either cloned human or rat receptor binding site.

AUC(0-t) ([1]; intravenous, 1 mg/kg): 155 ± 38 ng·h/mL
Cmax ([1]; intravenous, 1 mg/kg): 287 ± 58 ng/mL
Tmax ([1]; intravenous, 1 mg/kg): 4.8 min
half-life ([1]; intravenous, 1 mg/kg): 25.8 ± 6 min
bioavailability [1]: 25 ± 1%
AUC(0-t) ([1]; per oral, 3 mg/kg): 117 ± 34 ng·h/mL
Cmax ([1]; per oral, 3 mg/kg): 101 ± 37 ng/mL
Tmax ([1]; per oral, 3 mg/kg): 25.2 ± 8.4 min
half-life ([1]; per oral, 3 mg/kg): 34.2 ± 6 min
Kp [4]: 3.08 ± 0.45
Ki [5]: 3.3 nM
Compound: O=C(C1CCC1)N1CCc2nc(OC3CCN(C4CCC4)CC3)sc2C1.O=C(O)C(O)C(O)C(=O)O [Example 5, Cyclobutyl-[2-(1-cyclobutyl-piperidin-4-yloxy)-6,7-dihydro-4H-thiazolo[5,4-c]pyridin-5-yl]-methanone tartrate]
Reversal of Scopolamine Induced amnesia [2]: ≦3 mg/kg, p.o.
Inference ([3]; 3 mg/kg p.o.): Active
Exploration time mean ± S.E.M, Familiar object ([3]; 3 mg/kg p.o.): 7.15 ± 0.91 s
Exploration time mean ± S.E.M, Novel object ([3]; 3 mg/kg p.o.): 11.44 ± 1.58 s

AUC(0-t) ([1]; intravenous, 1 mg/kg): 282 ± 23 ng·h/mL
Cmax ([1]; intravenous, 1 mg/kg): 370 ± 25 ng/mL
Tmax ([1]; intravenous, 1 mg/kg): 4.8 min
half-life ([1]; intravenous, 1 mg/kg): 40.2 ± 3.6 min
bioavailability [1]: 82 ± 38%
AUC(0-t) ([1]; per oral, 3 mg/kg): 701 ± 328 ng·h/mL
Cmax ([1]; per oral, 3 mg/kg): 286 ± 40 ng/mL
Tmax ([1]; per oral, 3 mg/kg): 49.8 ± 17.4 min
half-life ([1]; per oral, 3 mg/kg): 57 ± 16.8 min
Ki [5]: 39 nM
Compound: O=C(C1CCOCC1)N1CCc2nc(OC3CCN(C4CCC4)CC3)sc2C1 [Example 28, [2-(1-Cyclobutyl-piperidin-4-yloxy)-6,7-dihydro-4H-thiazolo[5,4-c]pyridin-5-yl]-(tetrahydro-pyran-4-yl)-methanone]
Reversal of Scopolamine Induced amnesia [2]: ≧10 mg/kg, p.o.
Inference ([3]; 0.3 mg/kg p.o.): Active
Exploration time mean ± S.E.M, Familiar object ([3]; 0.3 mg/kg p.o.): 6.12 ± 1.22 s
Exploration time mean ± S.E.M, Novel object ([3]; 0.3 mg/kg p.o.): 11.44 ± 1.69 s

Ki [5]: 12.3 nM
Compound: O=C(CC1CC1)N1CCc2nc(OC3CCN(C4CCC4)CC3)sc2C1 [Example 19, 1-[2-(1-Cyclobutyl-piperidin-4-yloxy)-6,7-dihydro-4H-thiazolo[5,4-c]pyridin-5-yl]-2-cyclopropyl-ethanone]

Ki [5]: 4.19 nM
Compound: O=C(N1CCCCC1)N1CCc2nc(OC3CCN(C4CCC4)CC3)sc2C1 [Example 30, [2-(1-Cyclobutyl-piperidin-4-yloxy)-6,7-dihydro-4H-thiazolo[5,4-c]pyridin-5-yl]-piperidin-1-yl-methanone hydrochloride]

Ki [5]: 4.6 nM
Compound: O=C(C1CCCC1)N1CCc2nc(OC3CCN(C4CCC4)CC3)sc2C1 [Example 32, [2-(1-Cyclobutyl-piperidin-4-yloxy)-6,7-dihydro-4H-thiazolo[5,4-c]pyridin-5-yl]-cyclopentyl-methanone tartrate]

Continued, compound first:

Compound: O=C(CN1CCOCC1)N1CCc2nc(OC3CCN(C4CCC4)CC3)sc2C1.O=C(O)C(O)C(O)C(=O)O [Example 12, 1-[2-(1-Cyclobutyl-piperidin-4-yloxy)-6,7-dihydro-4H-thiazolo[5,4-c]pyridin-5-yl]-2-morpholin-4-yl-ethanone tartrate]
AUC(0-t) ([1]; intravenous, 1 mg/kg): 334 ± 39 ng·h/mL
Cmax ([1]; intravenous, 1 mg/kg): 237 ± 38 ng/mL
Tmax ([1]; intravenous, 1 mg/kg): 4.8 min
half-life ([1]; intravenous, 1 mg/kg): 172 ± 49.2 min
bioavailability [1]: 43 ± 17%
AUC(0-t) ([1]; per oral, 3 mg/kg): 417 ± 120 ng·h/mL
Cmax ([1]; per oral, 3 mg/kg): 151 ± 18 ng/mL
Tmax ([1]; per oral, 3 mg/kg): 49.8 ± 17.4 min
half-life ([1]; per oral, 3 mg/kg): 171 ± 22.8 min
Reversal of Scopolamine Induced amnesia [2]: ≧20 mg/kg, p.o.
Ki [5]: 8.44 nM

Compound: CCC(=O)NC1CCc2nc(OC3CCN(C4CCC4)CC3)sc2C1 (centres unmarked) [Example 3, N-[2-(1-Cyclobutyl-piperidin-4-yloxy)-4,5,6,7-tetrahydro-benzothiazol-6-yl]-propionamide]
Ki [5]: 26.7 nM

Compound: CC(C)C(=O)N1CCc2nc(OC3CCN(C4CCC4)CC3)sc2C1.O=C(O)C(O)C(O)C(=O)O [Example 22, 1-[2-(1-Cyclobutyl-piperidin-4-yloxy)-6,7-dihydro-4H-thiazolo[5,4-c]pyridin-5-yl]-2-methyl-propan-1-one tartrate]
AUC(0-t) ([1]; intravenous, 1 mg/kg): 110 ± 15 ng·h/mL
Cmax ([1]; intravenous, 1 mg/kg): 205 ± 47 ng/mL
Tmax ([1]; intravenous, 1 mg/kg): 4.8 min
half-life ([1]; intravenous, 1 mg/kg): 30 ± 3 min
bioavailability [1]: 65 ± 24%
AUC(0-t) ([1]; per oral, 3 mg/kg): 206 ± 56 ng·h/mL
Cmax ([1]; per oral, 3 mg/kg): 189 ± 56 ng/mL
Tmax ([1]; per oral, 3 mg/kg): 25.2 ± 8.4 min
half-life ([1]; per oral, 3 mg/kg): 32.4 ± 6.6 min
Kp [4]: 2.1 ± 0.13
Ki [5]: 9.5 nM

Compound: O=C(C1CC1)N1CCc2nc(OC3CCC(C4CCC4)CC3)sc2CC1 (centres unmarked) [Example 2, [2-(4-Cyclobutyl-cyclohexyloxy)-4,5,7,8-tetrahydro-thiazolo[5,4-d]azepin-6-yl]-cyclopropyl-methanone tartrate]
Ki [5]: 2 nM

Compound: CC(C)N1CCC(Oc2nc3c(s2)CN(C(=O)C2CCC2)CC3)CC1 [Example 8, Cyclobutyl-[2-(1-isopropyl-piperidin-4-yloxy)-6,7-dihydro-4H-thiazolo[5,4-c]pyridin-5-yl]-methanone]
Ki [5]: 7.69 nM

Compound: O=C(c1ccc(C(F)(F)F)nc1)N1CCc2nc(OC3CCN(C4CCC4)CC3)sc2C1 [Example 25, [2-(1-Cyclobutyl-piperidin-4-yloxy)-6,7-dihydro-4H-thiazolo[5,4-c]pyridin-5-yl]-(2-trifluoromethyl-pyridin-5-yl)-methanone]
Ki [5]: 35.3 nM

Compound: O=C(c1cccnc1)N1CCc2nc(OC3CCN(C4CCC4)CC3)sc2C1 [Example 26, [2-(1-Cyclobutyl-piperidin-4-yloxy)-6,7-dihydro-4H-thiazolo[5,4-c]pyridin-5-yl]-pyridin-3-yl-methanone tartrate]
Ki [5]: 32.5 nM

Compound: CC(C)N1CCC(Oc2nc3c(s2)CCN(C(=O)C2CC2)CC3)CC1 [Example 34, Cyclopropyl-[2-(1-isopropyl-piperidin-4-yloxy)-4,5,7,8-tetrahydro-thiazolo[5,4-d]azepin-6-yl]-methanone tartrate]
Ki [5]: 15.6 nM

Compound: O=C(c1ccncc1)N1CCc2nc(OC3CCN(C4CCC4)CC3)sc2C1 [Example 16, [2-(1-Cyclobutyl-piperidin-4-yloxy)-6,7-dihydro-4H-thiazolo[5,4-c]pyridin-5-yl]-pyridin-4-yl-methanone tartrate]
Ki [5]: 33.5 nM

Compound: CS(=O)(=O)N1CCc2nc(OC3CCN(C4CCC4)CC3)sc2C1 [Example 21, 2-(1-Cyclobutyl-piperidin-4-yloxy)-5-methanesulfonyl-,6,7-dihydro-4H-thiazolo[5,4-c]pyridine]
Ki [5]: 22.6 nM
